Reference: patent publication US20230212222A1 (ANYGEN CO., LTD., priority 2020, published 2023)
Like-named read-outs stand apart in the source and are kept apart here. Square brackets hold non-standard residues; d marks the D form. Peptide text beside a SMILES is read from it. * marks the point of attachment. Tyr(3,5-(NO2)2) = N[C@@H](Cc1cc([N+](=O)[O-])c(O)c([N+](=O)[O-])c1)C(=O)O; His(Trt) = N[C@@H](Cc1cn(C(c2ccccc2)(c2ccccc2)c2ccccc2)cn1)C(=O)O; dHis(Trt) = N[C@H](Cc1cn(C(c2ccccc2)(c2ccccc2)c2ccccc2)cn1)C(=O)O; His(τ-CHPh2) = N[C@@H](Cc1cn(C(c2ccccc2)c2ccccc2)cn1)C(=O)O; Biotin = O=C1N[C@H]2[C@H](CS[C@H]2CCCCC(=O)*)N1; sY = N[C@@H](Cc1ccc(OS(=O)(=O)O)cc1)C(=O)O; dPhe(4-Cl) = N[C@H](Cc1ccc(Cl)cc1)C(=O)O; dPhe(4-Me) = Cc1ccc(C[C@@H](N)C(=O)O)cc1; Dmt = Cc1cc(O)cc(C)c1C[C@H](N)C(=O)O; Myristoyl = CCCCCCCCCCCCCC(=O)*; Decanoyl = CCCCCCCCCC(=O)*; Octanoyl = CCCCCCCC(=O)*

What was measured:
GPR39 [1] = molecular target: T1, GPR39 (Homo sapiens, UniProt O43194); experiment: luciferase assay system (SRE luciferase reporter gene) for GPR39 in CV-1 cells; details: for ECmax (-fold induction over basal): CV-1 cells
T1 sequence (O43194 1-453): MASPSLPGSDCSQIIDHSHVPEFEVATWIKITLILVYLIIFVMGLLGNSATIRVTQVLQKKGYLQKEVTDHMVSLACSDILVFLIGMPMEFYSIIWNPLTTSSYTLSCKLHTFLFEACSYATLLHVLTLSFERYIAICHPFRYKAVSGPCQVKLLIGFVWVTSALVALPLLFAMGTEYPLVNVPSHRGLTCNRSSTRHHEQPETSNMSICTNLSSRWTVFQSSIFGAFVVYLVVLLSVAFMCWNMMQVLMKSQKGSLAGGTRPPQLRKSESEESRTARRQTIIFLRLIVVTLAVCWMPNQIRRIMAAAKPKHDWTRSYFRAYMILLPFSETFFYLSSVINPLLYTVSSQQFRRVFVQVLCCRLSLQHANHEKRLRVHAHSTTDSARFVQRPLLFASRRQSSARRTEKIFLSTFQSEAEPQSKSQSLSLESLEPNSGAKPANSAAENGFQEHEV
Procedure: (§1) Specifically, the fibroblast cell line CV-1 (1×10^5 cells/ml, Korea Cell Line Bank) was cultured in a 96 well cell culture plate for 24 hours, and then treated with GPR39 inserted into adenovirus and SRE (serum response element) luciferase at 50 MOI (multiplicity of infection) and 25 MOI virus for 3 hours, respectively, and then cultured for 24 hours.

GPR39 [2] = molecular target: T1, GPR39
Procedure: as §1

[3] = EC50, CV-1 cells, GPR39 and SRE luciferase adenovirus, treated 6 hours, luminometer
[4] = GPR39 and SRE luciferase adenovirus, treated 6 hours, luminometer

EC50 (GPR39 [1]; [3])	ECmax (-fold induction over basal) (GPR39 [2])	Structure (SMILES)	further results
150 ± 10 nM	20.51 ± 0.57 -fold induction over basal	CCCCCCCC(=O)NCCCC[C@H](NC(=O)[C@@H](N)Cc1cn(C(c2ccccc2)(c2ccccc2)c2ccccc2)cn1)C(=O)N[C@@H](Cc1ccccc1)C(=O)N[C@@H](Cc1ccc(O)cc1)C(=O)O [HKFY-1, N6-octanoyl-N2-(Nt-trityl-L-histidyl)-L-lysyl-L-phenylalanyl-L-tyrosine] (H-[His(Trt)]K(Octanoyl)FY-OH)	–
140 ± 70 nM	15 ± 1.87 -fold induction over basal	CCCCCCCC(=O)NCCCC[C@H](NC(=O)[C@H](Cc1cn(C(c2ccccc2)(c2ccccc2)c2ccccc2)cn1)NC(=O)CCCC[C@@H]1SC[C@@H]2NC(=O)N[C@@H]21)C(=O)N[C@@H](Cc1ccccc1)C(=O)N[C@@H](Cc1ccc(O)cc1)C(=O)O [HKFY-2, N6-octanoyl-N2-(Na-(5-((3aS,4S,6aR)-2-oxohexahydro-1H-thieno[3,4-d]imidazol-4-yl)pentanoyl)-Nt-trityl-L-histidyl)-L-lysyl-L-phenylalanyl-L-tyrosine] (Biotin-[His(Trt)]K(Octanoyl)FY-OH)	–
1840 ± 200 nM	16 ± 1.7 -fold induction over basal	CCCCCCCC(=O)NCCCC[C@H](NC(=O)[C@@H](N)Cc1cn(C(c2ccccc2)(c2ccccc2)c2ccc(C)cc2)cn1)C(=O)N[C@@H](Cc1ccccc1)C(=O)N[C@@H](Cc1ccc(O)cc1)C(=O)O [HKFY-5, N2-(Nt-(diphenyl(p-tolyl)methyl)-L-histidyl)-N6-octanoyl-L-lysyl-L-phenylalanyl-L-tyrosine]	–
20 ± 3 nM	20.9 ± 1.4 -fold induction over basal	CCCCCCCC(=O)NCCCC[C@H](NC(=O)[C@H](N)Cc1cn(C(c2ccccc2)(c2ccccc2)c2ccccc2)cn1)C(=O)N[C@H](Cc1ccc(Cl)cc1)C(=O)N[C@H](Cc1ccc(O)cc1)C(=O)O [HKFY-14, ((R)-2-((S)-2-((R)-2-amino-3-(1-trityl-1H-imidazol-4-yl)propanamido)-6-octanamidohexanamido)-3-(4-chlorophenyl)propanoyl)-D-tyrosine] (H-[dHis(Trt)]K(Octanoyl)[dPhe(4-Cl)][dY]-OH)	–
240 ± 20 nM	27.9 ± 3.4 -fold induction over basal	CCCCCCCC(=O)NCCCC[C@@H](NC(=O)[C@@H](N)Cc1cn(C(c2ccccc2)(c2ccccc2)c2ccccc2)cn1)C(=O)N[C@H](Cc1ccc(Cl)cc1)C(=O)N[C@@H](Cc1ccc(O)cc1)C(=O)O [HKFY-16, ((R)-2-((R)-2-((S)-2-amino-3-(1-trityl-1H-imidazol-4-yl)propanamido)-6-octanamidohexanamido)-3-(4-chlorophenyl)propanoyl)-L-tyrosine] (H-[His(Trt)][dK](Octanoyl)[dPhe(4-Cl)]Y-OH)	–
240 ± 70 nM	7.03 ± 0.57 -fold induction over basal	CCCCCCCCCC(=O)NCCCC[C@H](NC(=O)[C@@H](N)Cc1cn(C(c2ccccc2)(c2ccccc2)c2ccccc2)cn1)C(=O)N[C@@H](Cc1ccccc1)C(=O)N[C@@H](Cc1ccc(O)cc1)C(=O)O [HKFY-24, N6-decanoyl-N2-(Nt-trityl-L-histidyl)-L-lysyl-L-phenylalanyl-L-tyrosine] (H-[His(Trt)]K(Decanoyl)FY-OH)	–
280 ± 20 nM	19.82 ± 0.57 -fold induction over basal	CCCCCCCCCCCCCC(=O)NCCCC[C@H](NC(=O)[C@@H](N)Cc1cn(C(c2ccccc2)(c2ccccc2)c2ccccc2)cn1)C(=O)N[C@@H](Cc1ccccc1)C(=O)N[C@@H](Cc1ccc(O)cc1)C(=O)O [HKFY-26, N6-tetradecanoyl-N2-(Nt-trityl-L-histidyl)-L-lysyl-L-phenylalanyl-L-tyrosine] (H-[His(Trt)]K(Myristoyl)FY-OH)	–
8 ± 1 nM	23.88 ± 3.04 -fold induction over basal	CCCCCCCC(=O)NCCCC[C@H](NC(=O)[C@@H](N)Cc1cn(C(c2ccccc2)(c2ccccc2)c2ccccc2)cn1)C(=O)N[C@H](Cc1ccc(C)cc1)C(=O)N[C@@H](Cc1ccc(O)cc1)C(=O)O [HKFY-30, ((R)-2-((S)-2-((S)-2-amino-3-(1-trityl-1H-imidazol-4-yl)propanamido)-6-octanamidohexanamido)-3-(p-tolyl)propanoyl)-L-tyrosine] (H-[His(Trt)]K(Octanoyl)[dPhe(4-Me)]Y-OH)	ECmax value (in words) (GPR39 [1]; comment on Table 3): high ECmax value; activity level for GPR39 (in words) (GPR39 [1]; comment on Table 3, listed as HIKFY-30): most excellent activity; activity level for GPR39 (in words) (GPR39 [1]; comment on Table 3, listed as HJKFY-30): higher activity level than other HJKFY derivatives
20 ± 3 nM	20.9 ± 2.51 -fold induction over basal	CCCCCCCC(=O)NCCCC[C@H](NC(=O)[C@H](N)Cc1cn(C(c2ccccc2)(c2ccccc2)c2ccccc2)cn1)C(=O)N[C@H](Cc1ccc(C)cc1)C(=O)N[C@@H](Cc1ccc(O)cc1)C(=O)O [HKFY-31, ((R)-2-((S)-2-((R)-2-amino-3-(1-trityl-1H-imidazol-4-yl)propanamido)-6-octanamidohexanamido)-3-(p-tolyl)propanoyl)-L-tyrosine] (H-[dHis(Trt)]K(Octanoyl)[dPhe(4-Me)]Y-OH)	–
150 ± 70 nM	20 ± 0.57 -fold induction over basal	CCCCCCCC(=O)NCCCC[C@H](NC(=O)[C@@H](N)Cc1cn(C(c2ccccc2)c2ccccc2)cn1)C(=O)N[C@@H](Cc1ccccc1)C(=O)N[C@@H](Cc1ccc(O)cc1)C(=O)O [HKFY-33, N2-(Nt-benzhydryl-L-histidyl)-N6-octanoyl-L-lysyl-L-phenylalanyl-L-tyrosine] (H-[His(τ-CHPh2)]K(Octanoyl)FY-OH)	–
280 ± 70 nM	18.9 ± 0.41 -fold induction over basal	CCCCCCCC(=O)NCCCC[C@H](NC(=O)[C@@H](N)Cc1cn(C(c2ccccc2)c2ccccc2)cn1)C(=O)N[C@H](Cc1ccc(C)cc1)C(=O)N[C@@H](Cc1ccc(OS(=O)(=O)O)cc1)C(=O)O [HKFY-35, (S)-2-((R)-2-((S)-2-((S)-2-amino-3-(1-benzhydryl-1H-imidazol-4-yl)propanamido)-6-octanamidohexanamido)-3-(p-tolyl)propanamido)-3-(4-(sulfooxy)phenyl)propanoic acid] (H-[His(τ-CHPh2)]K(Octanoyl)[dPhe(4-Me)][sY]-OH)	–
–	–	CCCCCCCC(=O)NCCCC[C@H](NC(=O)[C@@H](N)Cc1cn(C(c2ccccc2)c2ccccc2)cn1)C(=O)N[C@H](Cc1ccc(C)cc1)C(=O)N[C@@H](Cc1c(C)cc(O)cc1C)C(=O)O [HKFY-36, (S)-2-((R)-2-((S)-2-((S)-2-amino-3-(1-benzhydryl-1H-imidazol-4-yl)propanamido)-6-octanamidohexanamido)-3-(p-tolyl)propanamido)-3-(4-hydroxy-2,6-dimethylphenyl)propanoic acid] (H-[His(τ-CHPh2)]K(Octanoyl)[dPhe(4-Me)][Dmt]-OH)	EC50 (GPR39 [1]): 150 ± 50 nM; ECmax (-fold induction over basal) (GPR39 [1]; [4]): 9.9 ± 0.28 -fold induction over basal
1840 ± 200 nM	16 ± 1.7 -fold induction over basal	CCCCCCCC(=O)NCCCC[C@H](NC(=O)[C@H](Cc1cn(C(c2ccccc2)(c2ccccc2)c2ccccc2)cn1)NC(=O)[C@H](CO)NC(=O)CN)C(=O)N[C@@H](Cc1ccccc1)C(=O)N[C@@H](Cc1ccc(O)cc1)C(=O)O [HKFY-37, N2-(Na-glycyl-L-seryl-Nt-trityl-L-histidyl)-N6-octanoyl-L-lysyl-L-phenylalanyl-L-tyrosine] (H-GS[His(Trt)]K(Octanoyl)FY-OH)	–
–	–	CCCCCCCC(=O)NCCCC[C@H](NC(=O)[C@@H](N)Cc1cn(C(c2ccccc2)(c2ccccc2)c2ccccc2)cn1)C(=O)N[C@@H](Cc1ccccc1)C(=O)N[C@@H](Cc1ccc(O)cc1)C(=O)N[C@@H](CO)C(=O)N[C@@H](CCC(N)=O)C(=O)N[C@@H](CC(=O)O)C(=O)NCC(=O)N[C@@H](C)C(=O)N[C@@H](CCCNC(=N)N)C(=O)N[C@@H](Cc1ccccc1)C(N)=O [HKFY-41, (3S,6S,9S,12S,15S,18S)-3-((2-(((S)-1-(((S)-1-(((S)-1-amino-1-oxo-3-phenylpropan-2-yl)amino)-5-guanidino-1-oxopentan-2-yl)amino)-1-oxopropan-2-yl)amino)-2-oxoethyl)carbamoyl)-18-((S)-2-amino-3-(1-trityl-1H-imidazol-4-yl)propanamido)-6-(3-amino-3-oxopropyl)-15-benzyl-12-(4-hydroxybenzyl)-9-(hydroxymethyl)-5,8,11,14,17,24-hexaoxo-4,7,10,13,16,23-hexaazahentriacontanoic acid] (H-[His(Trt)]K(Octanoyl)FYSQDGARF-NH2)	ECmax (-fold induction over basal) (GPR39 [1]; [4]): 12.2 ± 0.02 -fold induction over basal
–	–	CCCCCCCC(=O)NCCCC[C@H](NC(=O)[C@@H](N)Cc1cn(C(c2ccccc2)c2ccccc2)cn1)C(=O)N[C@H](Cc1ccc(C)cc1)C(=O)N[C@@H](Cc1cc([N+](=O)[O-])c(O)c([N+](=O)[O-])c1)C(=O)O [HKFY-69, (S)-2-((R)-2-((S)-2-((S)-2-amino-3-(1-benzhydryl-1H-imidazol-4-yl)propanamido)-6-octanamidohexanamido)-3-(p-tolyl)propanamido)-3-(4-hydroxy-3,5-dinitrophenyl)propanoic acid] (H-[His(τ-CHPh2)]K(Octanoyl)[dPhe(4-Me)][Tyr(3,5-(NO2)2)]-OH)	ECmax (-fold induction over basal) (GPR39 [1]; [4]): 12.2 ± 2.5 -fold induction over basal
